Data as given in patent US20250270213A1, “PI3Ka INHIBITORS” (Synnovation Therapeutics, Inc., priority 2022, published 2025).

Each compound was assayed on T47D (PIK3CA H1047R) cells (assay: pS473 AKT assay with 2.5% FBS, T47D cells). Details: Homo sapiens, pSer473 AKT, DMEM with 2.5% FBS, 2 h treatment, read-out: T47D_IC50.
Assay type: cell-based
Method in brief: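 T47D (PIK3CA H1047R) cells were switched to DMEM with 2.5% FBS and exposed to compounds for 2 h. After paraformaldehyde fixation, pSer473 AKT was detected by in-cell ELISA (rabbit primary, HRP anti-rabbit secondary, chemiluminescence); IC50 values were fitted from the concentration series.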

IC50, < 1000 nM:
Cc1cc(C(C)Nc2ccc(Cl)nc2-c2ccc3c(c2)CN(C)C3=O)c2c(c1)c(=O)n(C)c1c2cnn1C1CN(C)C1 (stereo not shown) [Compound 87, 9-(1-((6-chloro-2-(2-methyl-1-oxoisoindolin-5-yl)pyridin-3-yl)amino)ethyl)-4,7-dimethyl-3-(1-methylazetidin-3-yl)-3,4-dihydro-5H-pyrazolo[3,4-c]isoquinolin-5-one]
Cc1cc(C(CO)Nc2ccc(Cl)nc2-c2ccc3c(c2)CN(C)C3=O)c2c(c1)c(=O)n1c3c2cnn3CCC1 (stereo not shown) [Compound 333, 10-(1-((6-chloro-2-(2-methyl-1-oxoisoindolin-5-yl)pyridin-3-yl)amino)-2-hydroxyethyl)-8-methyl-4,5-dihydro-3H,6H-2,2a,5a-triazaaceanthrylen-6-one]
Cc1cc(C(C)Nc2ccc(Cl)nc2-c2c[nH]nc2C)c2c(c1)c(=O)n1c3c2cnn3C(CO)CC1 (stereo not shown) [Example 288, 10-(1-((6-chloro-2-(3-methyl-1H-pyrazol-4-yl)pyridin-3-yl)amino)ethyl)-3-(hydroxymethyl)-8-methyl-4,5-dihydro-3H,6H-2,2a,5a-triazaaceanthrylen-6-one]
CCn1c(=O)c2cc(C)cc(C(C)Nc3ccc(Cl)nc3-c3ncn(C)n3)c2c2cn(C3CN(C)C3)nc21 (stereo not shown) [Example 205, 9-(1-((6-Chloro-2-(1-methyl-1H-1,2,4-triazol-3-yl)pyridin-3-yl)amino)ethyl)-4-ethyl-7-methyl-2-(1-methylazetidin-3-yl)-2,4-dihydro-5H-pyrazolo[3,4-c]isoquinolin-5-one]
Cc1cc(C(C)Nc2ccc(Cl)nc2-c2ncn(C)n2)c2c(c1)c(=O)n(C)c1c2cnn1C1CN(CC(C)(C)O)C1 (stereo not shown) [Compound 93, 9-(1-((6-chloro-2-(1-methyl-1H-1,2,4-triazol-3-yl)pyridin-3-yl)amino)ethyl)-3-(1-(2-hydroxy-2-methylpropyl)azetidin-3-yl)-4,7-dimethyl-3,4-dihydro-5H-pyrazolo[3,4-c]isoquinolin-5-one]
Cc1cc(C(C)Nc2ccc(C)nc2C(=O)O)c2c(c1)c(=O)n1c3c2cnn3CCC1 (stereo not shown) [Compound I-37, 6-Methyl-3-((1-(8-methyl-6-oxo-4,5-dihydro-3H,6H-2,2a,5a-triazaaceanthrylen-10-yl)ethyl)amino)picolinic acid]
Cc1cc(C(C)Nc2ccc(Cl)nc2-c2nnco2)c2c(c1)c(=O)n1c3c2cnn3C(CO)CC1 (stereo not shown) [Example 286, 10-(1-((6-chloro-2-(1,3,4-oxadiazol-2-yl)pyridin-3-yl)amino)ethyl)-3-(hydroxymethyl)-8-methyl-4,5-dihydro-3H,6H-2,2a,5a-triazaaceanthrylen-6-one]
CCn1ncc2c3c(C(C)Nc4ccc(Cl)nc4-c4noc(=O)[nH]4)cc(C)cc3c(=O)n(CC(F)F)c21 (stereo not shown) [Compound 60, 3-(6-Chloro-3-((1-(4-(2,2-difluoroethyl)-3-ethyl-7-methyl-5-oxo-4,5-dihydro-3H-pyrazolo[3,4-c]isoquinolin-9-yl)ethyl)amino)pyridin-2-yl)-1,2,4-oxadiazol-5(4H)-one]
Cc1cc(C(C)Nc2ccc(Cl)nc2-c2ccc3c(c2)CN(C)C3=O)c2c(c1)c(=O)n(C)c1c2cnn1CCO (stereo not shown) [Example 248, 9-(1-((6-chloro-2-(2-methyl-1-oxoisoindolin-5-yl)pyridin-3-yl)amino)ethyl)-3-(2-hydroxyethyl)-4,7-dimethyl-3,4-dihydro-5H-pyrazolo[3,4-c]isoquinolin-5-one]
Cc1cc(C(C)Nc2ccc(Cl)nc2-c2cnn(C)c2)c2c(c1)c(=O)n(C)c1c2cnn1CC1CCN(CC(F)F)CC1 (stereo not shown) [Compound 106, 9-(1-((6-Chloro-2-(1-methyl-1H-pyrazol-4-yl)pyridin-3-yl)amino)ethyl)-3-((1-(2,2-difluoroethyl)piperidin-4-yl)methyl)-4,7-dimethyl-3,4-dihydro-5H-pyrazolo[3,4-c]isoquinolin-5-one]
[2H]C([2H])([2H])n1c(=O)c2cc(C)cc(C(C)Nc3ccc(Cl)nc3-c3cnn(C)c3)c2c2cnn(C3CCN(CCC#N)C3)c21 (stereo not shown) [Compound 152, 3-(3-(9-(1-((6-Chloro-2-(1-methyl-1H-pyrazol-4-yl)pyridin-3-yl)amino)ethyl)-7-methyl-4-(methyl-d3)-5-oxo-4,5-dihydro-3H-pyrazolo[3,4-c]isoquinolin-3-yl)pyrrolidin-1-yl)propanenitrile]
Cc1cc(C(C)Nc2ccccc2C(=O)O)c2c(c1)c(=O)n(C)c1nn(-c3cncnc3)cc21 (stereo not shown) [Compound I-30, 2-((1-(4,7-Dimethyl-5-oxo-2-(pyrimidin-5-yl)-4,5-dihydro-2H-pyrazolo[3,4-c]isoquinolin-9-yl)ethyl)amino)benzoic acid]
Cc1cc(C(C)Nc2ccc(Cl)nc2-c2ncn(C)n2)c2c(c1)c(=O)n(C)c1c2cnn1C1CCNCC1 (stereo not shown) [Compound 176, 9-(1-((6-Chloro-2-(1-methyl-1H-1,2,4-triazol-3-yl)pyridin-3-yl)amino)ethyl)-4,7-dimethyl-3-(piperidin-4-yl)-3,4-dihydro-5H-pyrazolo[3,4-c]isoquinolin-5-one]
CCCn1cc2c3c(C(C)Nc4ccccc4C(=O)O)cc(C)cc3c(=O)n(C)c2n1 (stereo not shown) [Compound I-26, 2-((1-(4,7-Dimethyl-5-oxo-2-propyl-4,5-dihydro-2H-pyrazolo[3,4-c]isoquinolin-9-yl)ethyl)amino)benzoic acid]
Cc1cc(C(C)Nc2ccc(Cl)nc2-c2ncn(C)n2)c2c(c1)c(=O)n(C)c1c(C(C)O)ncn21 (stereo not shown) [Compound 111, 9-(1-((6-Chloro-2-(1-methyl-1H-1,2,4-triazol-3-yl)pyridin-3-yl)amino)ethyl)-3-(1-hydroxyethyl)-4,7-dimethylimidazo[1,5-a]quinazolin-5(4H)-one]
Cc1cc(C(C)Nc2ccc(Cl)nc2-c2cnn3c2CN(C)CC3)c2c(c1)c(=O)n1c3c2cnn3CCC1 (stereo not shown) [Compound 323, 10-(1-((6-Chloro-2-(5-methyl-4,5,6,7-tetrahydropyrazolo[1,5-a]pyrazin-3-yl)pyridin-3-yl)amino)ethyl)-8-methyl-4,5-dihydro-3H,6H-2,2a,5a-triazaaceanthrylen-6-one]
CCn1ncc2c3c(C(C)Nc4ccc(Cl)nc4-c4ncn(C)n4)cc(C)cc3c(=O)n(C3CC3)c21 (stereo not shown) [Example 221, 9-(1-((6-Chloro-2-(1-methyl-1H-1,2,4-triazol-3-yl)pyridin-3-yl)amino)ethyl)-4-cyclopropyl-3-ethyl-7-methyl-3,4-dihydro-5H-pyrazolo[3,4-c]isoquinolin-5-one]
Cc1cc(C(C)Nc2ccc(Cl)nc2-c2cnn(C)c2)c2c(c1)c(=O)n(C)c1c(C(=O)N3CC(O)C3)ncn21 (stereo not shown) [Compound 122, 9-(1-((6-chloro-2-(1-methyl-1H-pyrazol-4-yl)pyridin-3-yl)amino)ethyl)-3-(3-hydroxyazetidine-1-carbonyl)-4,7-dimethylimidazo[1,5-a]quinazolin-5(4H)-one]
CCn1ncc2c3c(C(C)Nc4ccc(Cl)nc4-c4ccc(C(=O)NC)c(F)c4)cc(C)cc3c(=O)n(C)c21 (stereo not shown) [Compound 42, 4-(6-chloro-3-((1-(3-ethyl-4,7-dimethyl-5-oxo-4,5-dihydro-3H-pyrazolo[3,4-c]isoquinolin-9-yl)ethyl)amino)pyridin-2-yl)-2-fluoro-N-methylbenzamide]
CCn1c(=O)c2cc(C)cc(C(C)Nc3ccc(Cl)nc3-c3ncn(C)n3)c2c2cn(C3CCOCC3)nc21 (stereo not shown) [Example 199, 9-(1-((6-Chloro-2-(1-methyl-1H-1,2,4-triazol-3-yl)pyridin-3-yl)amino)ethyl)-4-ethyl-7-methyl-2-(tetrahydro-2H-pyran-4-yl)-2,4-dihydro-5H-pyrazolo[3,4-c]isoquinolin-5-one]
Cc1cc(C(C)Nc2ccc(Cl)nc2-c2cnn(C3CCN(C(=O)N(C)C)CC3)c2)c2c(c1)c(=O)n1c3c2cnn3CCC1 (stereo not shown) [Compound 305, 4-(4-(6-chloro-3-((1-(8-methyl-6-oxo-4,5-dihydro-3H,6H-2,2a,5a-triazaaceanthrylen-10-yl)ethyl)amino)pyridin-2-yl)-1H-pyrazol-1-yl)-N,N-dimethylpiperidine-1-carboxamide]
Cc1cc(C(C)Nc2ccc(Cl)nc2-c2ncn(C)n2)c2c(c1)c(=O)n(C)c1c(C3CCN(C)CC3)ncn21 (stereo not shown) [Compound 131, 9-(1-((6-Chloro-2-(1-methyl-1H-1,2,4-triazol-3-yl)pyridin-3-yl)amino)ethyl)-4,7-dimethyl-3-(1-methylpiperidin-4-yl) imidazo[1,5-a]quinazolin-5(4H)-one]
Cc1cc(C(C)Nc2ccc(Cl)nc2-c2ccncc2F)c2c(c1)c(=O)n(C)c1c2cnn1C1CCN(C(C)C)C1 (stereo not shown) [Compound 141, 9-(1-((6-chloro-3′-fluoro-[2,4′-bipyridin]-3-yl)amino)ethyl)-3-(1-isopropylpyrrolidin-3-yl)-4,7-dimethyl-3,4-dihydro-5H-pyrazolo[3,4-c]isoquinolin-5-one]
CCn1ncc2c3c(C(CO)Nc4ccc(Cl)nc4-c4cnn(C)c4C)cc(C)cc3c(=O)n(C)c21 (stereo not shown) [Compound 78, 9-(1-((6-Chloro-2-(1,5-dimethyl-1H-pyrazol-4-yl)pyridin-3-yl)amino)-2-hydroxyethyl)-3-ethyl-4,7-dimethyl-3,4-dihydro-5H-pyrazolo[3,4-c]isoquinolin-5-one]
CCc1ncn2c3c(C(C)Nc4ccccc4C(=O)O)cc(Cl)cc3c(=O)n(C)c12 (stereo not shown) [Compound I-9, 2-((1-(7-Chloro-3-ethyl-4-methyl-5-oxo-4,5-dihydroimidazo[1,5-a]quinazolin-9-yl)ethyl)amino)benzoic acid]
